Results reported in US20080221074A1, “Drug Screen and Treatment Method” (priority 2006, published 2008).

Experiments:
[1] = system: human T lymphocytes (PBMC); assay: human mixed lymphocyte reaction (MLR); format: cell-based; conditions: 300 nM or 30 nM
Text: Human mixed lymphocyte reaction (MLR). The capacity of 3β,16α-dihydroxy-17-oxoandrostane, 3β,17β-dihydroxy-16-oxoandrostane, 17α-ethynylandrost-5-ene-3β,7β,17β-triol, and 17β-aminoandrost-5-ene-3β-ol to affect antigen specific stimulation in which human T lymphocytes respond to a specific foreign antigen (major histocompatibility complex).
Blood samples were obtained from 3 (2 males, […]) fasting, healthy human volunteers of 23-31 years old. […] The subjects were bled between 9 and 10 AM to limit possible fluctuations in the circulating levels of hormones or cytokines that could have influenced the in vitro responses of their lymphocytes. Peripheral blood mononuclear cells (PBMC) were isolated by centrifugation on Ficoll-Hypaque (density 1.077, Biochrom AG, Berlin, Germany) gradients and resuspended in culture medium (RPMI 1640 supplemented with 2 mM L-glutamine, penicillin (100 U/mL) and streptomycin ([…]) (Invitrogen s.rl., Milan, Italy). Autologous (responder) inactivated plasma was used at 10%. Five hundred thousand responder PBMC (PBMCr) and 500,000 allogeneic irradiated (30 Gy) stimulator PBMC (PBMCs) were mixed at a ratio of 1:1 in 200 μL medium and cultured for 6 days in flat bottom 96 well plates (Nunc, Roskilde, Denmark) at a concentration of 300 nM or 30 nM for each of the 4 compounds. The compounds were dissolved in ethanol and then diluted to the desired concentration with culture medium leading to a final solution containing 0.01% of ethanol. This vehicle was used as control. Controls also included PBMCr and PBMCs cultured separately. During the last 8 hours of the culture period the PBMC were pulsed with […] [^3H] thymidine (Amersham, Milan, Italy). The cells were then harvested and radioactivity incorporation measured with a beta cell counter. The mean cpm of quadruplicate wells was calculated. Proliferation of T cells was expressed as a stimulation index: SI=cpm (PMBCs xPBMCr)/cpm (PBMCr)+cpm (PBMCs). Statistical analysis was performed using the Student's t test. The cpm obtained from quadruplicate of each test compound were compared to proliferative responses obtained in control PBMCr and PBMCs cultured in the presence of the vehicle. Differences were considered significant at p<0.05.

[2] = system: progressive ischemia after thermal injury of the ear; assay: thermal injury model using mouse ear tissue; format: in vivo, Balb/c mice; conditions: injection in propylene glycol after burn
Experimental: A thermal injury model using mouse ear tissue was used to characterize compounds for their capacity to treat inflammation associated with thermal trauma. […] Groups of Balb/c mice, approximately nine weeks old were given an identifying mark and then divided into control and treated subgroups. The thickness of the ear to be immersed in hot water was recorded, and then the entire ear of the anesthetized mouse was dipped into 52° C. water for 24 seconds. Each mouse was returned to its cage after an injection of either the propylene glycol vehicle (control) or 100 mg of compound in propylene glycol. Ear swelling changes were monitored on individual mice at pre-burn, and at various times after thermal injury. Ear swelling changes were monitored on individual mice at pre-injury and at 1, 3, 6, 9,12, 18, 24 and 48 hours after thermal injury. Animals were treated with 100 mg of dehydroepiandrosterone (DHEA) dissolved in propylene glycol.

EAE = assay: experimental allergic encephalomyelitis (EAE), PLP 139-151; format: in vivo, female SJL/J mice; conditions: 5 mg/kg daily oral gavage; through day 26
Text: Treatment of autoimmune neurodegeneration. Three compounds, 17β-aminoandrost-5-ene-3β-ol, 17β-dimethylaminoandrost-5-ene-3β-ol and 17β-methylaminoandrost-5-ene-3β-ol were characterized for their capacity to ameliorate experimental allergic encephalomyelitis (EAE) in mice. This demyelinating condition is extensively used as a model for multiple sclerosis in humans and for testing of new therapies for treating multiple sclerosis, e.g., B. F. Bebo Jr. et al., J. Neurosci. Res. 52:420-426 1998; R. R. Voskuhl et al., Neuroscientist, 7:258-270 2001; H. Offner et al., J. Neuroimmunol., 130:128-139 2002.
In this protocol, the compounds were administered to female SJL/J mice by oral gavage at the onset of disease symptoms. An antigen was used to initiate the EAE condition in the mice. […] Immunization with this peptide antigen initiates an autoimmune Thl mediated demyelinating disease of the central nervous system. The antigen was prepared by solid phase synthesis and purified by high-performance liquid chromatography. […] The immunization protocol was subcutaneous injection over four sites on the hind flank on day 0. After immunization. the mice were assessed daily for clinical signs of EAE using the following scale: 0=no clinical signs or symptoms; 1=limp tail; 2=mild hind limb weakness and limp tail; 3=moderate hind limb weakness and limp tail or mild ataxia; 4=severe hind limb weakness and mild forearm weakness with moderate ataxia; 5=paraplegia with no more than moderate forelimb weakness; 6=paraplegia with severe forelimb weakness or severe ataxia or moribund condition.
Mice in the vehicle control group began to show observable symptoms of EAE at about 10-11 days after immunization with the PLP antigen, which is typical for the EAE disease model. The animals were dosed daily with 17β-aminoandrost-5-ene-3β-ol, 17β-dimethylaminoandrost-5-ene-3β-ol or 17β-methylaminoandrost-5-ene-3β-ol by oral gavage beginning at day 1, which was 1 day after immunization.

[3] = system: ionizing radiation exposure; assay: survival after lethal total body irradiation (10 Gy); format: in vivo, female B6D2F1 mice
Experimental: Treatment of ionizing radiation exposure. The effect of selected F1Cs on survival of lethally-irradiated female B6D2F1 mice were compared to control animals treated with vehicle alone. […] For Group 4, test article was administered as a 50 μL volume, by intramuscular injection for three consecutive days. The formulation was a a suspension containing 0.1% w/v carboxymethyl-cellulose, 0.9% w/v sodium chloride and 0.05% v/v phenol. The formulations were agitated to uniformly resuspend the Fl C before syringing, and injected into animals within a few minutes of drawing into the syringe to prevent settling in the syringe.
The groups of animals were treated as follows. […] The number of surviving animals is shown for day 6, 7, 12 and 21.

NF-κB = assay: inhibition of NF-κB activation in NF-κB-bla THP-1 cells after LPS stimulation; format: cell-based, human; conditions: Homo sapiens, THP-1
Text: Inhibition of NF-κB in vitro. […] Activation of NF-κB increases expression of a number of genes that mediate inflammation. This protocol used human THP-1 cells, which are human mononuclear blood cells with a monocyte phenotype. The cell line, referred to as NF-κB-bla THP-1, contained a β-lactamase reporter gene under the control of the NF-kB response element (Invitrogen, CellSensor™, product No. K1176). In this cell line, the β-lactamase reporter gene is stably integrated in the THP-1 cells. This cell line was used to detect agonists or antagonists of the NF-κB signaling pathway. These NF-κB-bla THP-1 cells respond to the presence of tumor necrosis factor alpha (TNFα) or bacterial lipopolysaccharide (LPS) by increased expression of the β-lactamase reporter gene. The level of β-lactamase enzyme activity was measured by fluorescence resonance energy transfer ratiometric detection. TNFα and LPS are both potent inflammation-inducing agents that activate NF-κB in THP1 cells. In this assay, compounds that decrease NF-κB activity, and thus β-lactamase, in the presence of TNFα or LPS are exerting an anti-inflammation activity.
The NF-κB-bla THP-1 cells were maintained by passaging or feeding as needed. […] The cells were plated at 20,000 cells/well in a 384-well Black-wall, clear bottom assay plates (Costar#3712-TC low fluorescence background plates) approximately 24 hours before adding either TNFα at 10 ng/mL or LPS at 0.2 ng/mL to activate NF-κB.
The assays were usually conducted 2-4 times for each compound and the values shown below are averages for each compound.

[4] = system: insulin sensitivity in db/db diabetic mice; assay: hyperinsulinemic-euglycemic clamp; format: in vivo; conditions: ^14C-2-deoxyglucose; p<0.05
Experimental: Glucose lowering in 8 week old db/db diabetic mice. The hyperinsulinemic-euglycemic clamp protocol was conducted to measure insulin sensitivity in vivo. In this procedure, insulin was administered to raise the insulin concentration while glucose was infused to maintain euglycemia or a fixed, normal blood glucose level (about 180 mg/dL). […] The objective of this protocol was to investigate characterize the capacity of 17α-ethynylandrost-5-ene-3β,7β,17β-triol and androst-5-ene-3β,7β,16α,17β-tetrol to ameliorate systemic insulin resistance and improve whole body glucose disposal in the hyperinsulinemic-euglycemic clamp model. The degree of skeletal muscle and hepatic insulin sensitivity and tissue specific glucose uptake were also assessed. The animals were dosed daily by oral gavage for 14 days. On Day 10 of treatment catheters were implanted in the carotid artery and jugular vein. On the day of the clamp (day 14) the compound was administered at 7:30 am.
Body weight and glucose concentration were assessed on day 0, 7 and day 14 of treatment. On day 14 a euglycemic hyperinsulinemic clamp was performed. Food was removed at 7:30 am at 10:30 a primed continuous infusion of [3-^3H]-glucose (0.05 μCi/min). A baseline blood sample was taken at 12:50 (−10 min) and at 1:00 (0 min) a euglycemic hyperinsulinemic clamp was initiated by administering 10 mU /kg/min of insulin. Glucose was infused at a variable rate to clamp the glucose concentration at ˜180 mg/dl. A bolus of [^14C]-2deoxyglucose was given at the end of the study to assess tissue specific glucose uptake. Plasma ^14C 2-deoxyglucose was assessed at 122, 125, 130, 135, 145 min. […]
Analysis was conducted as follows. Plasma samples were deproteinized with Ba(OH)2 (0.3 N) and ZnSO4 (0.3 N), dried and radioactivity was assessed on scintillation counter (Packard TRICARB 2900 TR, Meriden, Conn.). […] One supernatant was directly counted to determine radioactivity from both [14C] […] A second aliquot was treated with Ba(OH)2 and ZnSO4 to remove ^14C DGP and any tracer incorporated into glycogen and then counted to determine radioactivity from free [^14C]DG(2). [^14C]DGP was calculated as the difference between the two aliquots. […] Rg, an index of tissue specific glucose uptake was calculated as previously described (E.W. Kraegen et al., Am. J. Physiol., 248:E353-E362, 1985). Whole body glucose turnover was calculated as the ratio of the ^3H glucose infusion rate (dpm/kg/min) and arterial plasma glucose specific activity (dpm/mg). Endogenous glucose production was calculated as the difference between the whole body glucose turnover and the exogenous glucose infusion rate (R. N. Bergman et al., Endocr. Rev., 6:45-86, 1985).

With `C[C@]12CC[C@H]3[C@@H](CCC4C[C@@H](O)CC[C@@]43C)[C@@H]1CC(=O)[C@@H]2O` (stereo partly drawn) [3β,17β-dihydroxy-16-oxoandrostane] as the molecule, how does the “immune suppression (inhibition of the MLR)” value [1] read?
The value was “not appreciably immune suppressive”.

With `C[C@]12CC[C@H](O)CC1=CC[C@@H]1[C@@H]2CC[C@]2(C)C(=O)[C@H](Br)C[C@@H]12` [16α-bromodehydroepiandrosterone] as the molecule, how does the “protection against progressive ischemia after thermal injury to the ear” value (from here on “protection against progressive ischemia”) [2] read?
The value was “protected treated animals against much of the ischemic consequences”.

`C[C@]12CC[C@H](O)CC1=CC[C@@H]1[C@@H]2CC[C@]2(C)C(=O)[C@H](Cl)C[C@@H]12` [16α-chlorodehydroepiandrosterone] was tested. Which “protection against progressive ischemia” value [2] did it give?
Its value is “only slightly protective”.

With `C[C@]12CC[C@H](O)CC1=CC[C@@H]1[C@@H]2CC[C@]2(C)C(=O)[C@H](O)C[C@@H]12` [16α-hydroxydehydroepiandrosterone] as the molecule, how does the “protection against progressive ischemia” value [2] read?
Its value is “less protective”.

How did the “clinical severity of EAE symptoms” value (EAE) turn out when `CN(C)[C@H]1CC[C@H]2[C@@H]3CC=C4C[C@@H](O)CC[C@]4(C)[C@H]3CC[C@]12C` [17β-dimethylaminoandrost-5-ene-3β-ol] was run?
The value was “reduced the clinical severity”.

`CN[C@H]1CC[C@H]2[C@@H]3CC=C4C[C@@H](O)CC[C@]4(C)[C@H]3CC[C@]12C` [17β-methylaminoandrost-5-ene-3β-ol] was tested. Which “clinical severity of EAE symptoms” value (EAE) did it give?
The value was “reduced the clinical severity”.

For `C[C@]12CC[C@H]3[C@@H](CC=C4C[C@@H](O)CC[C@@]43C)[C@@H]1CC[C@@H]2O` [androst-5-ene-3β,17β-diol], which “number of surviving animals (groups of 12)” value (shortened to “number of surviving animals”) ([3]; 0.6 mg i.m. daily for 3 days, day 6) is on record?
The value was 12.

What about the “number of surviving animals” value ([3]; 0.6 mg i.m. daily for 3 days, day 7) of the same molecule?
Its value is 12.

What about the “number of surviving animals” value ([3]; 0.6 mg i.m. daily for 3 days, day 12) of the same molecule?
The value was 11.

What about the “number of surviving animals” value ([3]; 0.6 mg i.m. daily for 3 days, day 21) of the same molecule?
Its value is 9.

What about the “number of surviving animals” value ([3]; 0.6 mg s.c. daily for 3 days, day 6) of the same molecule?
The value was 12.

And the “number of surviving animals” value ([3]; 0.6 mg s.c. daily for 3 days, day 7)?
The value was 11.

What about the “number of surviving animals” value ([3]; 0.6 mg s.c. daily for 3 days, day 12) of the same molecule?
Its value is 10.

And the “number of surviving animals” value ([3]; 0.6 mg s.c. daily for 3 days, day 21)?
Its value is 7.

What about the “number of surviving animals” value ([3]; 3.0 mg s.c. daily for 3 days, day 6) of the same molecule?
Its value is 12.

And the “number of surviving animals” value ([3]; 3.0 mg s.c. daily for 3 days, day 7)?
The value was 12.

And the “number of surviving animals” value ([3]; 3.0 mg s.c. daily for 3 days, day 12)?
The value was 9.

What about the “number of surviving animals” value ([3]; 3.0 mg s.c. daily for 3 days, day 21) of the same molecule?
Its value is 7.

And the IC50 (NF-κB)?
The IC50 was 0.014 nM.

What about the “protection against progressive ischemia” value [2] of the same molecule?
Its value is “protected treated animals against much of the ischemic consequences”.

`CN(CCOc1ccc(CC2SC(=O)NC2=O)cc1)c1ccccn1.O=C(O)/C=C\C(=O)O` (stereo not drawn) [rosiglitazone, rosiglitazone maleate, reference compound] was tested. Which “glucose uptake in the gastrocnemius muscle” value [4] did it give?
Its value is “more effective”.
